According to ChEMBL document CHEMBL1201862, “PubChem BioAssay data set” (2004):
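Compound exposure: 48 hours, 5 concentrations, 96-well plates. Abbreviation: GI50, concentration required for 50% inhibition of growth.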 The source made the active and inactive calls. Cut-off read from the data, not from the text of the source: active = GI50 up to about 1.1 µM and inactive = higher.

How the values were obtained:
Assay in all cases: growth of human tumour cells (NCI), 48 h
[1] = system: DLD-1
[2] = system: DMS-273
[3] = system: XF498
[4] = system: DMS-114
[5] = system: LXFL 529
[6] = system: HOP-18
[7] = system: RXF 631
[8] = system: BT-549
[9] = system: SNB-78

Measured: GI50

COc1ccc2[nH]cc(CCNC(=O)[C@](O)(Cc3cn(C)c4ccccc34)[C@@]3(O)OCC(O)C3O)c2c1 (stereo partly specified)
inactive: [1] > 100 µM | [2] > 100 µM | [3] 90.6 µM | [4] 35.6 µM | [5] 67.8 µM | [6] > 100 µM | [7] > 100 µM

CC(C)(C)OC(=O)c1ccc(NCc2cc(O)ccc2O)cc1
inactive: [8] 2 µM

Cc1cc([N+](=O)[O-])c(C)c2c1[nH]c1ccc(O)cc12
inactive: [9] > 100 µM | [1] 16.8 µM | [2] > 100 µM | [3] > 100 µM | [4] 66.4 µM | [6] 55.1 µM

CN1C/C(=C\c2cccs2)C2=NN(c3ccccc3)C(c3cccs3)C2C1 (stereo unspecified)
inactive: [8] 17.9 µM

Cc1cn(C2CC(OC(=O)c3ccc(Cl)cc3)C(COC(=O)c3ccc(Cl)cc3)O2)c(=O)[nH]c1=O (stereo unspecified)
inactive: [8] > 100 µM

CCCC(=O)Oc1ccc(/C=N/NC(N)=S)nc1
inactive: [9] > 100 µM | [1] > 100 µM | [2] > 100 µM | [4] 38.2 µM | [5] > 100 µM | [6] > 100 µM

CC(=O)Nc1ccc2c(C(=O)O)c(C)c(O)nc2n1
inactive: [8] > 100 µM

COc1cc2c(c(O)c1O)-c1ccc(OC)c(=O)cc1C(NC(C)=O)CC2 (stereo unspecified)
inactive: [9] 4.54 µM | [1] 29.6 µM | [2] 5.07 µM | [3] 6.18 µM | [5] 5.25 µM | [6] > 22.1 µM | [7] 38 µM

O=C(c1ccco1)N1CCCN(C(=O)c2ccco2)C1=S
inactive: [8] > 100 µM

CC(=N\N=C\c1ccccn1)/C(C)=N/N=C/c1ccccn1
inactive: [8] > 100 µM

CC1=CCC23C(C1)OC(Br)(C=CC2(C)O)C3(C)C (stereo unspecified)
inactive: [9] > 100 µM | [1] > 100 µM | [2] > 100 µM | [3] > 100 µM | [4] > 100 µM | [6] > 100 µM

COC(=O)c1cc2c(=O)n(C)c3ccccc3n2c1C(=O)OC
inactive: [9] > 100 µM | [1] 30.1 µM | [2] 51.6 µM | [3] 20.4 µM | [4] > 100 µM | [5] > 100 µM | [7] > 100 µM

Nc1ccccc1C(=O)/C=C/c1c(O)ccc2ccccc12
inactive: [9] > 100 µM | [1] > 100 µM | [2] > 100 µM | [4] > 100 µM | [5] > 100 µM | [6] > 100 µM | [7] > 100 µM

CC[C@H]1CC(=O)c2c(cc3c(c2O)C(=O)c2ccccc2C3=O)[C@@]1(C#N)C(=O)OC(C)(C)C
inactive: [9] 4.89 µM | [1] 2.33 µM | [2] 2.42 µM | [3] 2.74 µM | [4] 3.21 µM | [5] 3.25 µM | [6] 3.52 µM

N=C(N)N/N=C/c1c(-c2cc([N+](=O)[O-])c(Cl)cc2Cl)nc2n1CCS2
inactive: [8] 3.18 µM

COc1ccc(C(=O)C(c2ccc(OCc3ccccc3)cc2)c2ccc(OCc3ccccc3)cc2)cc1
inactive: [9] > 100 µM | [1] > 100 µM | [2] > 100 µM | [3] > 100 µM | [4] > 100 µM | [7] 2.67 µM

COc1ccccc1C(=O)c1c(NCc2ccccc2)c(=O)c1=O
inactive: [8] 66.8 µM

O=C(N/C(=C\c1ccc(Cl)cc1)c1nc2ccccc2[nH]1)c1ccccc1
inactive: [9] 29.3 µM | [1] 15.8 µM | [2] 21.1 µM | [3] 18.6 µM | [5] 15.3 µM | [6] 13.7 µM

COc1ccc(OCC(=N/NC(=O)c2ccncc2)/N=C/c2cccnc2)cc1
inactive: [8] > 100 µM

CC1=CC=C2c3ccccc3C=CN2C(=O)C1
inactive: [8] 18.9 µM

COc1ccc2cc3c4cc5c(cc4cc[n+]3cc2c1OC)OCO5
inactive: [8] 1.63 µM

CC(C)C(OC(=O)c1ccc(NCC2=CC(=O)C=CC2=O)cc1)C(C)C
inactive: [8] 3.52 µM

CCN1C2=NC(=O)N(C)C(=O)C2(Cl)C(C(SC)S(=O)(=O)c2ccc(C)cc2)c2ccccc21 (stereo unspecified)
inactive: [9] 24.2 µM | [1] 33.4 µM | [2] 31.6 µM | [3] 49.5 µM | [4] 41.1 µM | [5] 23.3 µM | [7] 21.4 µM

CC(C)NC(=O)OCc1c(COC(=O)NC(C)C)c(-c2ccc[n+](COC(=O)C3CCCCC3)c2)n2c1CCC2
inactive: [8] 48.1 µM

CN(C(=O)Cc1cc(Cl)c(Cl)cc1NC(=O)CN)[C@H]1CCCC[C@@H]1N1CCCC1
inactive: [8] 35.1 µM

COc1ccccc1N1C(=O)/C(=C\c2cc(OC)c(OC)c(OC)c2)SC1c1ccccc1 (stereo unspecified)
inactive: [8] 84.9 µM

CC(=O)OC1CC2CCN3C(=O)c4cc5c(cc4[C@H](C1OC(C)=O)C23)OCO5 (stereo partly specified)
inactive: [9] > 100 µM | [1] > 100 µM | [2] > 100 µM | [5] > 100 µM
